Here are results for 7 molecules from PubChem BioAssay (NCI).

Several values for one entry are separate records, joined by “and”; a condition that tells them apart may be missing. Equal values may be shown once.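 How tested: cells in 96-well plates exposed to compound for 48 hours at five concentrations. GI50 is the concentration that inhibits growth by half. At the TGI there is no net growth.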 Where only a bound is given, the exact number is not on record here.

Some test systems named below: CCRF-CEM leukemia; M14 melanoma; UACC-257 melanoma; SW-620 colon; HOP-62 NSCLC; MOLT-4 leukemia; UO-31 renal; T-47D breast; OVCAR-5 ovarian; HOP-92 NSCLC.
Holding throughout (assay): NCI tumour cell line growth inhibition, 48 h

For the molecule `COc1ccc2nc(N/N=C(\C)c3ccccn3)cc(C)c2c1`, the GI50 was 67.9 nM in the assay with CCRF-CEM leukemia; 212 nM with M14 melanoma; 276 nM in the assay with UACC-257 melanoma; 381 nM with SW-620 colon; 259 nM in the assay on HOP-62 NSCLC; 131 nM with MOLT-4 leukemia. For the same molecule, the GI50 with UO-31 renal was 161 nM; in the assay with T-47D breast, 76.6 nM; in the assay on OVCAR-5 ovarian, 571 nM; in the assay with HOP-92 NSCLC it was 169 nM. The TGI was determined as 400 nM in the assay with CCRF-CEM leukemia; 1130 nM in the assay with M14 melanoma; 1090 nM in the assay with UACC-257 melanoma; 1750 nM in the assay with SW-620 colon; 1110 nM in the assay on HOP-62 NSCLC; 488 nM with MOLT-4 leukemia. Also, the TGI with UO-31 renal is 1080 nM; with T-47D breast it was 1610 nM; in the assay on OVCAR-5 ovarian it was 3680 nM; with HOP-92 NSCLC it was 2550 nM.

For the molecule `C[C@@H]1C[C@@H](O)[C@]2(O)O[C@@H]3C[C@@]4(C=O)[C@@H](CC[C@@H]5[C@@H]4CC[C@]4(C)[C@@H](C6=CC(=O)OC6)CC[C@]54O)C[C@H]3O[C@@H]2O1`, the GI50 in the assay with CCRF-CEM leukemia is 5 nM; in the assay on M14 melanoma, 89.1 nM and 32.4 nM; in the assay with UACC-257 melanoma, 71.1 nM and 29.1 nM; with SW-620 colon, 52.5 nM and 11.1 nM; in the assay on HOP-62 NSCLC it was 14.3 nM and 5 nM; in the assay on MOLT-4 leukemia, 6.99 nM and 5 nM. For the same molecule, the GI50 with UO-31 renal was 14.3 nM; with OVCAR-5 ovarian, 119 nM and 65.2 nM; with HOP-92 NSCLC, 135 nM. Moreover, the TGI was 39.1 nM and 22.3 nM in the assay with CCRF-CEM leukemia; 74 nM and 232 nM and 200 nM with M14 melanoma; 118 nM and 266 nM and 122 nM with UACC-257 melanoma; 59.1 nM and 221 nM and 164 nM in the assay with SW-620 colon; 57.6 nM and 67 nM and 70.9 nM in the assay with HOP-62 NSCLC; 55.9 nM and 45.4 nM with UO-31 renal. Besides, the TGI in the assay with T-47D breast was 890 nM; in the assay on OVCAR-5 ovarian it was 102 nM and 299 nM and 194 nM; in the assay with HOP-92 NSCLC, 234 nM and 683 nM.

`COc1cc(/C(C#N)=C/c2ccc3c(c2OC)OCO3)cc2c1OCO2`: the GI50 with CCRF-CEM leukemia is 60.1 nM; in the assay with M14 melanoma it was 47.7 nM; in the assay with UACC-257 melanoma it was 794 nM; in the assay with SW-620 colon, 41.2 nM; in the assay on HOP-62 NSCLC it was 138 nM; in the assay on MOLT-4 leukemia it was 111 nM. Besides, the GI50 with UO-31 renal is 2090 nM; in the assay with T-47D breast, 6180 nM; in the assay on OVCAR-5 ovarian it was 823 nM; in the assay on HOP-92 NSCLC it was 211 nM. Further, the TGI with CCRF-CEM leukemia is 4620 nM; in the assay with M14 melanoma it was 7810 nM; in the assay with UACC-257 melanoma, > 100000 nM; in the assay on SW-620 colon, > 100000 nM; with HOP-62 NSCLC, 14300 nM; in the assay with MOLT-4 leukemia, 19900 nM. The TGI in the assay with UO-31 renal was > 100000 nM; in the assay with T-47D breast, > 83600 nM; with OVCAR-5 ovarian, > 80200 nM; with HOP-92 NSCLC, 15700 nM.

As to `CS(=O)(=O)CCNCc1nc(-c2ccc3ncnc(Nc4ccc(F)c(Cl)c4)c3c2)cs1`, the GI50 with CCRF-CEM leukemia was 15400 nM; in the assay with M14 melanoma it was 21500 nM; with UACC-257 melanoma, > 25000 nM; with SW-620 colon, > 25000 nM; in the assay with HOP-62 NSCLC, > 24100 nM; in the assay with MOLT-4 leukemia it was 15300 nM. The GI50 in the assay with UO-31 renal was 6810 nM; in the assay on T-47D breast, 8570 nM; in the assay with OVCAR-5 ovarian, > 25000 nM; with HOP-92 NSCLC, 9820 nM. For the same molecule, the TGI in the assay on CCRF-CEM leukemia, in the assay on M14 melanoma, in the assay on UACC-257 melanoma, in the assay on SW-620 colon, with HOP-62 NSCLC and with MOLT-4 leukemia was > 25000 nM each time. Besides, the TGI in the assay with UO-31 renal, in the assay with T-47D breast, with OVCAR-5 ovarian and in the assay on HOP-92 NSCLC was > 25000 nM each time.

With `O=C(CN1CCN(c2ncccn2)CC1)Nc1ccc(Cl)cc1C(=O)c1ccccc1Cl`, the GI50 was 83500 nM in the assay with CCRF-CEM leukemia; > 100000 nM in the assay with M14 melanoma; > 100000 nM with UACC-257 melanoma; > 100000 nM with SW-620 colon; 13200 nM in the assay on HOP-62 NSCLC; 21900 nM with MOLT-4 leukemia. The GI50 was > 100000 nM in the assay with UO-31 renal, 30800 nM in the assay with T-47D breast, > 100000 nM with OVCAR-5 ovarian and 5730 nM in the assay on HOP-92 NSCLC. Moreover, the TGI is > 100000 nM in the assay with CCRF-CEM leukemia; > 100000 nM with M14 melanoma; > 100000 nM with UACC-257 melanoma; > 100000 nM in the assay on SW-620 colon; 57500 nM in the assay with HOP-62 NSCLC; > 100000 nM with MOLT-4 leukemia. Further, the TGI in the assay on UO-31 renal is > 100000 nM; with T-47D breast it was > 100000 nM; in the assay with OVCAR-5 ovarian, > 100000 nM; with HOP-92 NSCLC, 75100 nM.

Turning to `O=P(O)(CCP(=O)(O)c1ccccc1)c1ccccc1`, the TGI in the assay on CCRF-CEM leukemia, in the assay with M14 melanoma, with UACC-257 melanoma, in the assay with SW-620 colon, with HOP-62 NSCLC and in the assay with MOLT-4 leukemia was > 100000 nM in each case. In addition, the TGI in the assay with UO-31 renal, in the assay with T-47D breast, with OVCAR-5 ovarian and in the assay on HOP-92 NSCLC was > 100000 nM throughout.

Consider `O=[N+]([O-])C1C(c2ccccc2)C12c1ccccc1-c1ccccc12` (stereo not drawn), for which the GI50 was 318 nM with CCRF-CEM leukemia; 789 nM in the assay on M14 melanoma; 6380 nM in the assay with UACC-257 melanoma; 424 nM in the assay with SW-620 colon; 573 nM in the assay on HOP-62 NSCLC; 746 nM in the assay on MOLT-4 leukemia. Also, the GI50 in the assay on UO-31 renal was 2060 nM; with T-47D breast, 2730 nM; in the assay with OVCAR-5 ovarian, 4650 nM; in the assay on HOP-92 NSCLC it was 250 nM. The TGI with CCRF-CEM leukemia was 4220 nM; in the assay on M14 melanoma, 23700 nM; with UACC-257 melanoma, 51200 nM; in the assay with SW-620 colon it was 8200 nM; with HOP-62 NSCLC, 17600 nM; in the assay on MOLT-4 leukemia, > 26300 nM. Besides, the TGI with UO-31 renal was 18800 nM; in the assay on T-47D breast it was 23200 nM; with OVCAR-5 ovarian it was > 51800 nM; with HOP-92 NSCLC it was 2050 nM.
